We go through one compound from patent US20090130229A1, “Antitumor uses of compound” (Cell Therapeutics, Inc., priority 2002, published 2009).

Test [1] concerns NIH3T3^MEN2A(C634R) cells. Put plainly: Reversion of transformed morphologic phenotype of NIH3T3 MEN2A(C634R) transfectants. The format is cell-based, murine. Particulars: 6 μM, 24 h, phase-contrast microscope. The procedure:
(§1) FIG. 1. Effects of Cpd 1 on NIH3T3^MEN2A(C634R) transfectants expressing exogenous RET/MEN2A(C634R). […] Cells were exposed to 6 μM Cpd1 for 24 h and then photographed under a phase-contrast microscope (original magnification ×100). B) Antiproliferative effect. NIH3T3^MEN2A(C634R) cells and the parental NIH3T3 cells were treated with increasing concentrations of the drug for 72 h and then counted with a Coulter Counter. […] C) Inhibition of Ret/MEN2A(C634R) autophosphorylation and expression. Cells were treated with solvent (−) or 10 μM Cpd1 (+), for the indicated times. Whole cell-lysates were prepared and subjected to SDS-PAGE and Western blotting with anti-pTyr antibody. After stripping, the filter was reblotted with anti-Ret antibody. Arrows indicate the partial and fully glycosilated forms of the Ret/MEN2A receptor.
(§2) The following human medullary thyroid carcinoma (MTC) cell lines were used in this study. The TT cell line derived from a MEN2A-associated MTC characterized by expression of the RET oncogene carrying the mutation C634W. The MZ-CRC-1 cell line derived from MEN2B-associated MTC characterized by expression of the RET oncogene carrying the mutation M918T. […]

Test [2] relates to NIH3T3^MEN2A(C634R) cells. Description: Antiproliferative assay (Coulter Counter), NIH3T3 MEN2A(C634R) versus parental NIH3T3. It is filed as cell-based, murine. The note with it: 72 h, dose-response curves. As to the method:
as §1
Cells were trypsinized after 3 days (NIH3T3 and NIH3T3 M12A cells) or 7 days (MTC cells) of treatment with Cpd1 and counted by a Coulter Counter (Coulter Electronics, Luton U.K.). The concentrations able to inhibit cell proliferation by 50% (IC50) were calculated from the dose-response curves. Each experiment was performed in duplicate

The target of the next test is T1, Met (Homo sapiens, UniProt P08581).
T1 construct: endogenous in cells; host or cells: TPC-1 (human papillary thyroid carcinoma)
Description: Met autophosphorylation and expression in TPC-1 cells (IP/Western blotting). It is filed as cell-based. The procedure: FIG. 4. Inhibition of Met autophosphorylation and expression in human papillary thyroid carcinoma cells (TPC-1) treated with Cpd1. A): TPC-1 cells were exposed to solvent (−) or the indicated concentrations of Cpd 1 for 72 h. Equal amounts of protein were used for immunoprecipitation (IP) with anti-Met antibody or for the preparation of whole cell lysates (WCL). Immunoprecipitated proteins and WCLs were separated by SDS-PAGE, transferred to nitrocellulose membranes, and subjected to Western blotting with anti-pTyr or anti-Met antibodies. B): Cells were treated as in A. Cell extracts were immunoprecipitated with anti-pTyr antibody and probed with anti-Met antibody. C): Cells were serum-starved for 24 h and exposed to solvent or Cpd1 (60 μM) during the last 18 h. Then they were left untreated (−) or stimulated with 20 ng/ml HGF (+), for 10 min. Cell lysates were immunoprecipitated with anti-Met and probed with anti-pTyr or anti-Met antibody. Drug treatment abolished the constitutive or HGF-induced Met tyrosine phosphorylation and induced a reduction of Met expression.
The following human medullary thyroid carcinoma (MTC) cell lines were used in this study. The TT cell line derived from a MEN2A-associated MTC characterized by expression of the RET oncogene carrying the mutation C634W. The MZ-CRC-1 cell line derived from MEN2B-associated MTC characterized by expression of the RET oncogene carrying the mutation M918T. TT cells were cultivated in Ham's F12 medium (BioWhittaker, Verviers, Belgium) supplemented with 15% fetal calf serum (FCS) (Life Technologies, Inc., Gaithersburg, Md.) whereas MZ-CRC-1 cells were grown in Dulbecco's modified Eagle's medium (DMEM) (BioWhittaker) supplemented with 10% FCS. The human papillary thyroid carcinoma cell line TPC-1 which was used as a model of Met overexpression, was routinely cultivated in DMEM with 10% FCS. […]
(§3) For immunoprecipitation experiments, cells were treated with Cpd1 or solvent for the indicated times. […] Protein concentration was determined by the BCA reagent (Pierce). […]

For another test, the target named is T2, Kit (Δ559) (Homo sapiens, UniProt P10721, DEL559-559).
T2 construct: expressed in transfected cells; host or cells: NIH3T3 (mouse fibroblasts)
Description: Kit (Δ559) autophosphorylation and expression in NIH3T3 transfectants. The format is cell-based. Particulars: 72 h. As to the method:
FIG. 7. Effects of Cpd1 on cell lines expressing constitutively activated forms of Kit. […] Cells were treated with 20 μM Cpd1 and photographed 24 h later under a phase-contrast microscope (original magnification X 100). B): Inhibition of Kit (Δ559) autophosphorylation and expression in NIH3T3 transfectants. Cells were treated with Cpd 1 at the indicated concentrations, for 72 h. Cell lysates were immunoprecipitated with anti-Kit antibody and subjected to Western blotting with anti-p-Tyr or anti-Kit antibodies. C): Inhibition of expression and autocrine loop-activated autophosphorylation of c-Kit in the SCLC cell line N592. Cells were treated with Cpd 1 at the indicated concentrations, for 24 h. Whole cell lysates were subjected to Western blotting with anti-Kit antibody or with an antibody specifically recognizing the tyrosine phosphorylated/activated Kit (p-Kit).
as §2, §3

Each structure is given as a SMILES string. Entries after “also recorded” stand apart in the source; their conditions may differ.

T1 sequence (P08581 25-1390): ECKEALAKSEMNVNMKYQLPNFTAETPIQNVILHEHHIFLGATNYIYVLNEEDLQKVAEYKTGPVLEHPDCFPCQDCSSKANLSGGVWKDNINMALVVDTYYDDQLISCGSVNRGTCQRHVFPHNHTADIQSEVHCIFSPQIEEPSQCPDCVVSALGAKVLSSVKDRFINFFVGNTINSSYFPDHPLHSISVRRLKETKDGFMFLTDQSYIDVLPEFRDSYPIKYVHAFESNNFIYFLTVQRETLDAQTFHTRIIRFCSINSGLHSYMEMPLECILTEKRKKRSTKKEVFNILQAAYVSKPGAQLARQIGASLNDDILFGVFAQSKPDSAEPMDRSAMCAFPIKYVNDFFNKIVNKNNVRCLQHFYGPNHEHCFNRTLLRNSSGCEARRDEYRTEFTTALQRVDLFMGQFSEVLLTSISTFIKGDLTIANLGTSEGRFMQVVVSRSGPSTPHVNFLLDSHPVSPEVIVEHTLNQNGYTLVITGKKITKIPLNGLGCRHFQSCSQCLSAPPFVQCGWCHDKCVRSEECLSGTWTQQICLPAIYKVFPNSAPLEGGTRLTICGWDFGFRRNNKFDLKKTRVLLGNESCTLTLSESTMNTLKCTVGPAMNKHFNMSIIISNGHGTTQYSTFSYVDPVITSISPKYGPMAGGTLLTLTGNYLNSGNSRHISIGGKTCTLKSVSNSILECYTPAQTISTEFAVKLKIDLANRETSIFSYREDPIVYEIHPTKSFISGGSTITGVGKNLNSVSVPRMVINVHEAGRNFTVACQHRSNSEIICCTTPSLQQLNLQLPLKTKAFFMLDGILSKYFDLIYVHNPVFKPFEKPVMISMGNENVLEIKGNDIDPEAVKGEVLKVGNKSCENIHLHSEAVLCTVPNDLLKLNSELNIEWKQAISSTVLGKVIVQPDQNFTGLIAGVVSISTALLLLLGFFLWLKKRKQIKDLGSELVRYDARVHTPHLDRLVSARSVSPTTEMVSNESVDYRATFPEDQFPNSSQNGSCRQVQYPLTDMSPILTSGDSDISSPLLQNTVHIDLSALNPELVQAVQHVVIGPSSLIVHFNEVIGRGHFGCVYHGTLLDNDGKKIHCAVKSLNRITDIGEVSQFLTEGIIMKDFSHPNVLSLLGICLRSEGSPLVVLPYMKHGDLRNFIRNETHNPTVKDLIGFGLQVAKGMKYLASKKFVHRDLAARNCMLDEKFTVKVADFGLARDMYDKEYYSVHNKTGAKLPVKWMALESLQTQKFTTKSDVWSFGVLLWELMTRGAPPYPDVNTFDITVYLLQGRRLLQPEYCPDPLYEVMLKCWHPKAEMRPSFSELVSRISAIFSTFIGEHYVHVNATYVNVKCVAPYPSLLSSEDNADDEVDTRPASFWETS
T2 sequence (P10721 with tags, fused parts or gaps DEL559-559): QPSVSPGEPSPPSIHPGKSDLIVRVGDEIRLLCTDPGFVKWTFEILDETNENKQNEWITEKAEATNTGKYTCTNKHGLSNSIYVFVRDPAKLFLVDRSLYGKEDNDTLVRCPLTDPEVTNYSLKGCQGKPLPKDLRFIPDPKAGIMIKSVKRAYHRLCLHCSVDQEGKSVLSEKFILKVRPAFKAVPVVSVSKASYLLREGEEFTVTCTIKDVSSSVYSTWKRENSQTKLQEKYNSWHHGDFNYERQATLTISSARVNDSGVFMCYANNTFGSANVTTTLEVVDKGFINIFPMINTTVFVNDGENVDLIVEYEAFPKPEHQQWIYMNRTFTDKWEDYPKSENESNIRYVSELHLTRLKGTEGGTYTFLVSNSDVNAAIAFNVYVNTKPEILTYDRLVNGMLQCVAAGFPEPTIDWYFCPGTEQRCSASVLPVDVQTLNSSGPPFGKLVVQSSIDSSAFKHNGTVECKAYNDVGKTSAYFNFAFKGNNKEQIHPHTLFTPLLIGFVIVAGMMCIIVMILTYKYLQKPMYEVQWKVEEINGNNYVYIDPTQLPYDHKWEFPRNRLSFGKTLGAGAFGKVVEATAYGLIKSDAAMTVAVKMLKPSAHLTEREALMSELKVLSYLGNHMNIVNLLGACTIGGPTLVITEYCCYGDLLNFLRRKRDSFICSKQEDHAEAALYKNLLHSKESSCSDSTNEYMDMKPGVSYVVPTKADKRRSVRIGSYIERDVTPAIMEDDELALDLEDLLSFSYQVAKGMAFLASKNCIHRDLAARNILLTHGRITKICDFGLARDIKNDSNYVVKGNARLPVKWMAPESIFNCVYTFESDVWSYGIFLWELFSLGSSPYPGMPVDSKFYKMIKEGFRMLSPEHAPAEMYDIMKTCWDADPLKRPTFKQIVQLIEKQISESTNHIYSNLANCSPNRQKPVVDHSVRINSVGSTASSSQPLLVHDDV

For the compound `COc1cc2c(cc1OC)/C(=C\c1ccc(O)cc1)C(=O)N2` [Cpd 1, (E)-1,3-dihydro-5,6-dimethoxy-3-[(4-hydroxyphenyl)methylene]-2H-indol-2-one], in test [1], the Transformed morphologic phenotype entry is given as “Reversion of the transformed morphologic phenotype”. Further, the “Antiproliferative effect, sensitivity relative to parental NIH3T3 cells” value in test [2] is “higher sensitivity”. Further, the Met expression entry at Met (TPC-1 cells) was “reduction”. The “HGF-induced Met tyrosine phosphorylation” value at Met (TPC-1 cells serum-starved, 60 μM for 18 h, 20 ng/ml HGF 10 min) is given as “abolished”. Also, on Met (TPC-1 cells, 72 h), the “Constitutive Met tyrosine phosphorylation (autophosphorylation)” value is “dose-dependent inhibition; also recorded: abolished”. Further, at Kit (Δ559), the “Kit (Δ559) expression” value is listed as “dose-dependent drug-induced inhibition” and the “Kit (Δ559) tyrosine phosphorylation” value is “dose-dependent drug-induced inhibition”.
